According to PubChem BioAssay (NCI):
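Results reflect a 48-hour exposure of cells in 96-well plates to compound at five concentrations. Here, GI50 denotes the concentration required for 50% inhibition of growth. TGI denotes the concentration required for complete inhibition of growth.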

Legend:
Assay in all cases: growth of human tumour cells (NCI), 48 h
[1] = tested on: 786-0 renal
[2] = tested on: A498 renal
[3] = tested on: A549 NSCLC
[4] = tested on: ACHN renal
[5] = tested on: BT-549 breast
[6] = tested on: CAKI-1 renal
[7] = tested on: CCRF-CEM leukemia
[8] = tested on: COLO 205 colon
[9] = tested on: DU-145 prostate
[10] = tested on: EKVX NSCLC
[11] = tested on: HCC-2998 colon
[12] = tested on: HCT-116 colon
[13] = tested on: HCT-15 colon
[14] = tested on: HL-60(TB) leukemia
[15] = tested on: HOP-62 NSCLC
[16] = tested on: HOP-92 NSCLC
[17] = tested on: HS 578T breast
[18] = tested on: HT29 colon
[19] = tested on: IGROV1 ovarian
[20] = tested on: K-562 leukemia
[21] = tested on: KM12 colon
[22] = tested on: LOX IMVI melanoma
[23] = tested on: M14 melanoma
[24] = tested on: MALME-3M melanoma
[25] = tested on: MCF7 breast
[26] = tested on: MDA-MB-231 breast
[27] = tested on: MDA-MB-435
[28] = tested on: MOLT-4 leukemia
[29] = tested on: NCI-H226 lung
[30] = tested on: NCI-H23 lung
[31] = tested on: NCI-H460 lung
[32] = tested on: NCI-H522 lung
[33] = tested on: NCI/ADR-RES ovarian
[34] = tested on: OVCAR-3 ovarian
[35] = tested on: OVCAR-4 ovarian
[36] = tested on: OVCAR-5 ovarian
[37] = tested on: OVCAR-8 ovarian
[38] = tested on: PC-3 prostate
[39] = tested on: RPMI-8226 leukemia
[40] = tested on: RXF 393 renal
[41] = tested on: SF-268 CNS
[42] = tested on: SF-295 CNS
[43] = tested on: SF-539 CNS
[44] = tested on: SK-MEL-2 melanoma
[45] = tested on: SK-MEL-28 melanoma
[46] = tested on: SK-MEL-5 melanoma
[47] = tested on: SK-OV-3 ovarian
[48] = tested on: SN12C renal
[49] = tested on: SNB-19 CNS
[50] = tested on: SNB-75 CNS
[51] = tested on: SR leukemia
[52] = tested on: SW-620 colon
[53] = tested on: T-47D breast
[54] = tested on: TK-10 renal
[55] = tested on: U251 CNS
[56] = tested on: UACC-257 melanoma
[57] = tested on: UACC-62 melanoma
[58] = tested on: UO-31 renal

**Q.** `COC(=O)Nc1nc2ccc(Sc3ccccc3)cc2[nH]1` was tested. Which GI50 [1] did it give?
**A.** 323 nM

**Q.** What about the TGI [1] of the same compound?
**A.** 14600 nM

**Q.** And the GI50 [2]?
**A.** 140 nM

**Q.** What about the TGI [2] of the same compound?
**A.** 6400 nM

**Q.** What about the GI50 [3] of the same compound?
**A.** 208 nM

**Q.** And the TGI [3]?
**A.** 5960 nM

**Q.** What about the GI50 [4] of the same compound?
**A.** 1190 nM

**Q.** And the TGI [4]?
**A.** 22900 nM

**Q.** And the GI50 [5]?
**A.** 1040 nM

**Q.** And the TGI [5]?
**A.** 18800 nM

**Q.** What about the GI50 [6] of the same compound?
**A.** 225 nM

**Q.** What about the TGI [6] of the same compound?
**A.** > 43500 nM

**Q.** And the GI50 [7]?
**A.** 249 nM

**Q.** And the TGI [7]?
**A.** > 100000 nM

**Q.** And the GI50 [8]?
**A.** 188 nM

**Q.** What about the TGI [8] of the same compound?
**A.** 533 nM

**Q.** What about the GI50 [9] of the same compound?
**A.** 336 nM

**Q.** And the TGI [9]?
**A.** 10800 nM

**Q.** And the GI50 [10]?
**A.** 1640 nM

**Q.** What about the TGI [10] of the same compound?
**A.** 53600 nM

**Q.** What about the GI50 [11] of the same compound?
**A.** 220 nM

**Q.** What about the TGI [11] of the same compound?
**A.** 3030 nM

**Q.** What about the GI50 [12] of the same compound?
**A.** 77.1 nM

**Q.** And the TGI [12]?
**A.** 10100 nM

**Q.** What about the GI50 [13] of the same compound?
**A.** 82.5 nM

**Q.** And the TGI [13]?
**A.** 23000 nM

**Q.** What about the GI50 [14] of the same compound?
**A.** 80.5 nM

**Q.** And the TGI [14]?
**A.** 455 nM

**Q.** And the GI50 [15]?
**A.** 277 nM

**Q.** What about the TGI [15] of the same compound?
**A.** 4230 nM

**Q.** What about the GI50 [16] of the same compound?
**A.** 177 nM

**Q.** What about the TGI [16] of the same compound?
**A.** 7000 nM

**Q.** And the GI50 [17]?
**A.** 260 nM

**Q.** And the TGI [17]?
**A.** 11200 nM

**Q.** And the GI50 [18]?
**A.** 49.4 nM

**Q.** And the TGI [18]?
**A.** 1290 nM

**Q.** And the GI50 [19]?
**A.** 441 nM

**Q.** What about the TGI [19] of the same compound?
**A.** 18300 nM

**Q.** What about the GI50 [20] of the same compound?
**A.** 48.2 nM

**Q.** And the GI50 [21]?
**A.** 63.4 nM

**Q.** And the TGI [21]?
**A.** 22300 nM

**Q.** What about the GI50 [22] of the same compound?
**A.** 487 nM

**Q.** What about the TGI [22] of the same compound?
**A.** 17200 nM

**Q.** What about the GI50 [23] of the same compound?
**A.** 89.2 nM

**Q.** And the TGI [23]?
**A.** 1430 nM

**Q.** And the GI50 [24]?
**A.** 444 nM

**Q.** What about the TGI [24] of the same compound?
**A.** 18800 nM

**Q.** And the GI50 [25]?
**A.** 66.6 nM

**Q.** And the TGI [25]?
**A.** 26000 nM

**Q.** What about the GI50 [26] of the same compound?
**A.** 476 nM

**Q.** What about the TGI [26] of the same compound?
**A.** 21500 nM

**Q.** What about the GI50 [27] of the same compound?
**A.** 30.7 nM

**Q.** And the TGI [27]?
**A.** 111 nM

**Q.** And the GI50 [28]?
**A.** 262 nM

**Q.** What about the GI50 [29] of the same compound?
**A.** 291 nM

**Q.** What about the TGI [29] of the same compound?
**A.** 1700 nM

**Q.** What about the GI50 [30] of the same compound?
**A.** 290 nM

**Q.** And the TGI [30]?
**A.** 31000 nM

**Q.** What about the GI50 [31] of the same compound?
**A.** 247 nM

**Q.** And the TGI [31]?
**A.** 11600 nM

**Q.** What about the GI50 [32] of the same compound?
**A.** 113 nM

**Q.** What about the TGI [32] of the same compound?
**A.** 587 nM

**Q.** And the GI50 [33]?
**A.** 67.4 nM

**Q.** What about the TGI [33] of the same compound?
**A.** 461 nM

**Q.** And the GI50 [34]?
**A.** 123 nM

**Q.** And the TGI [34]?
**A.** 421 nM

**Q.** And the GI50 [35]?
**A.** 856 nM

**Q.** What about the TGI [35] of the same compound?
**A.** 6340 nM

**Q.** And the GI50 [36]?
**A.** 511 nM

**Q.** And the TGI [36]?
**A.** 23400 nM

**Q.** What about the GI50 [37] of the same compound?
**A.** 298 nM

**Q.** What about the TGI [37] of the same compound?
**A.** 3990 nM

**Q.** And the GI50 [38]?
**A.** 214 nM

**Q.** And the TGI [38]?
**A.** > 37400 nM

**Q.** What about the GI50 [39] of the same compound?
**A.** 358 nM

**Q.** What about the TGI [39] of the same compound?
**A.** > 36600 nM

**Q.** And the GI50 [40]?
**A.** 154 nM

**Q.** What about the TGI [40] of the same compound?
**A.** 510 nM

**Q.** And the GI50 [41]?
**A.** 1440 nM

**Q.** And the TGI [41]?
**A.** 26900 nM

**Q.** And the GI50 [42]?
**A.** 152 nM

**Q.** What about the TGI [42] of the same compound?
**A.** 19900 nM

**Q.** And the GI50 [43]?
**A.** 234 nM

**Q.** What about the TGI [43] of the same compound?
**A.** 933 nM

**Q.** What about the GI50 [44] of the same compound?
**A.** 162 nM

**Q.** And the TGI [44]?
**A.** 2880 nM

**Q.** And the GI50 [45]?
**A.** 387 nM

**Q.** What about the TGI [45] of the same compound?
**A.** 15500 nM

**Q.** What about the GI50 [46] of the same compound?
**A.** 146 nM

**Q.** And the TGI [46]?
**A.** 4080 nM

**Q.** And the GI50 [47]?
**A.** 179 nM

**Q.** And the TGI [47]?
**A.** 684 nM

**Q.** What about the GI50 [48] of the same compound?
**A.** 524 nM

**Q.** And the TGI [48]?
**A.** 25700 nM

**Q.** What about the GI50 [49] of the same compound?
**A.** 267 nM

**Q.** What about the TGI [49] of the same compound?
**A.** 28900 nM

**Q.** And the GI50 [50]?
**A.** 195 nM

**Q.** And the TGI [50]?
**A.** 2050 nM

**Q.** What about the GI50 [51] of the same compound?
**A.** 35 nM

**Q.** What about the GI50 [52] of the same compound?
**A.** 107 nM

**Q.** And the TGI [52]?
**A.** > 48300 nM

**Q.** And the GI50 [53]?
**A.** 436 nM

**Q.** And the TGI [53]?
**A.** > 81200 nM

**Q.** And the GI50 [54]?
**A.** 1270 nM

**Q.** What about the TGI [54] of the same compound?
**A.** 17300 nM

**Q.** What about the GI50 [55] of the same compound?
**A.** 168 nM

**Q.** What about the TGI [55] of the same compound?
**A.** 4370 nM

**Q.** What about the GI50 [56] of the same compound?
**A.** 3080 nM

**Q.** What about the TGI [56] of the same compound?
**A.** > 66800 nM

**Q.** What about the GI50 [57] of the same compound?
**A.** 405 nM

**Q.** And the TGI [57]?
**A.** 23900 nM

**Q.** And the GI50 [58]?
**A.** 848 nM

**Q.** What about the TGI [58] of the same compound?
**A.** 20500 nM
